Results from paper PMC4604408, “Targeting the Parasite's DNA with Methyltriazenyl Purine Analogs Is a Safe, Selective, and Efficacious Antitrypanosomal Strategy” (Antimicrobial Agents and Chemotherapy, 2015).
Entries after “also recorded” stand apart in the source; their conditions may differ. Where two headings read alike, the source gives them in different places.

Columns and labels:
[1] = tested on: T. brucei brucei WT (strain 427); experiment: microbe, parasite or virus in culture; type: cell-based; conditions: for SI, in vitro selectivity index: EC50(HEK)/EC50(T. brucei brucei WT); for EC50: Trypanosoma brucei, read-out: In vitro activity (EC50) T. brucei brucei WT
[2] = tested on: T. brucei brucei 427 tbat1^−/−; experiment: microbe, parasite or virus in culture; type: cell-based; conditions: for EC50: Trypanosoma brucei, read-out: In vitro activity (EC50) T. brucei brucei 427 tbat1^−/−
[3] = biological target: T. brucei H2 (hypoxanthine transporter 2 of T. brucei brucei); type: cell-based; conditions: read-out: Transport (Ki value) T. brucei H2
[4] = tested on: His– S. typhimurium strains TA98 and TAMix; experiment: Ames II mutagenicity assay; type: cell-based, Salmonella typhimurium; conditions: before (–S9) and after (+S9) metabolic activation, 62.5 µM to 2 mM
[5] = tested on: freshly isolated rat hepatocytes; experiment: hepatotoxicity on freshly isolated rat hepatocytes; type: cell-based; conditions: 100 µM, up to 120 min
Protocol: page 11: Figure S3 A B C 125 125 125 100 100 100 75 75 75 50 50 50 25 Contr ol 25 Contr ol 25 Contr ol 0 + NA1371 0 +NA1371 0 +NA1371 0 30 60 90 120 0 30 60 90 120 0 30 60 90 120 […] ) Figure S3. […] (A) Hepatocytes from male Sprague-Dawley rats were isolated as described (4, 5) and hepatotoxicity assays were performed as described (6). […] or left untreated. Cell viability was determined by a Trypan blue exclusion test. Values are normalized to t=0 min (%). (B) The reduced glutathione (GSH) content of hepatocytes was determined by an O-phthaldehyde fluorimetric test. […] (C) The total protein content of hepatocytes was determined by a Lowry assay. […]

[6] = tested on: T. brucei brucei (STIB 795); experiment: mouse model of acute trypanosomiasis; type: in vivo; conditions: female NMRI mice, 50 mg/kg i.p. daily for 4 days from day 3 postinfection
[7] = tested on: T. brucei rhodesiense (STIB 900); experiment: stringent mouse model of trypanosomiasis; type: in vivo; conditions: female NMRI mice, 50 mg/kg i.p. for four consecutive days from day 3 postinfection
Protocol: The experiments were performed essentially as described previously ([26]). Female NMRI mice were infected intraperitoneally (i.p.) with 10^4 bloodstream-form T. brucei brucei (strain STIB 795) or 3 × 10^3 T. brucei rhodesiense (strain STIB 900). Experimental groups of four mice were treated i.p. with test drug daily on four consecutive days starting from day 3 postinfection. A control group was infected but remained untreated. The tail blood of each mouse was checked for parasitemia up to 60 days postinfection; mice were culled when parasitemia was >10^8 trypanosomes/ml of blood. Surviving and aparasitemic mice at day 60 were considered cured and were euthanized. All protocols and procedures used in this study were reviewed and approved by the local veterinary authorities of the Canton Basel-Stadt, Switzerland.
Figure S4. Methyltriazenyl purine 1 has a high cure rate in acute T. b. rhodesiense infection in vivo. Kaplan–Meier survival plot for female NMRI mice (n = 4 per group) after infection with T. b. rhodesiense (STIB900) (inoculum 3×10^3 parasites). Intraperitoneal injection with 1 dissolved in DMSO started 3 days after infection at a single dose of 50 mg/kg

[8] = tested on: BF T. brucei brucei; experiment: TUNEL assay for DNA strand breaks in trypanosomes; type: cell-based; conditions: 3 μM, 24 h
[9] = tested on: Tbb msh2+/+; experiment: microbe, parasite or virus in culture; type: cell-based, Trypanosoma brucei; conditions: read-out: Tbb msh2+/+ (EC50; µM) AVG
[10] = tested on: Tbb msh2+/-; experiment: microbe, parasite or virus in culture; type: cell-based, Trypanosoma brucei; conditions: read-out: Tbb msh2+/- (EC50; µM) AVG
[11] = tested on: Tbb msh2-/-; experiment: microbe, parasite or virus in culture; type: cell-based, Trypanosoma brucei; conditions: for EC50: read-out: Tbb msh2-/- (EC50; µM) AVG
[12] = type: in vivo; conditions: up to 10 × 50 mg/kg i.p. daily
[13] = tested on: bloodstream-form T. brucei; experiment: potency in Creek's minimal medium with inosine or hypoxanthine as purine source; type: cell-based
[14] = tested on: BF T. brucei; experiment: growth curves of treated bloodstream-form trypanosomes; type: cell-based; conditions: 15 µM for 72 h in Fig. S7
Protocol: Given its promising antiparasitic efficacy in vitro and in vivo, we selected lead compound 1 for further antitrypanosomal mechanism-of-action studies. […] We analyzed the DNA content of these cells over 24 h by flow cytometry (Fig. 3B; see also Fig. S7 in the supplemental material). After 4 h of exposure to 15 μM compound 1, we observed a decrease in the proportion of cells with normal diploid (2C) DNA content, whereas an aberrant population of cells started to appear with a DNA content between 2C and 4C. […] We also monitored the karyotype distribution of BF T. brucei over time (see Fig. S8 in the supplemental material), using DAPI staining to visualize nuclei (N) and kinetoplasts (K). Within the first 8 h (the normal time to complete one cell cycle) of exposure to compound 1, we observed a significant increase in 1N2K cells, with a coincident decrease in 1N1K and 2N2K. […]
FIG 3 Methyltriazenyl purines cause cell cycle arrest in the G2/M phase in T. brucei. […] (b) DNA content of BF T. brucei in the presence or absence of 15 μM compound 1, as determined by propidium iodide staining of fixed cells and measured by fluorescence-activated cell sorting (FACS). […]
Figure S7. […] B) Long term growth curve of bloodstream form T.b. brucei s427 cultures (seeded at 5 × 10^5 cells/mL) exposed to 15 µM of 1 (closed squares) or vehicle only (open circles) monitored for 72 hours. […]

[15] = tested on: BF T. brucei; experiment: DNA content by propidium iodide staining and flow cytometry; type: cell-based; conditions: 15 μM, 24 h
[16] = tested on: HEK293 (human embryonic kidney 293T cells); experiment: cells; conditions: read-out: In vitro activity (EC50) HEK293
[17] = spontaneous triazene hydrolysis by UV spectroscopy; conditions: 50 µM in PBS at 37 °C, physiological conditions, n=2
[18] = tested on: HEK293 (human embryonic kidney 293T cells)
[19] = biological target: T. brucei H2 (hypoxanthine transporter 2 of T. brucei brucei); parameters: method as in PMID 9364969; conditions: natural substrates; read-out: Transport (Ki value) T. brucei H2; cited from earlier work
[20] = tested on: T. b. rhodesiense STIB 900; experiment: microbe, parasite or virus in culture; type: cell-based; conditions: Trypanosoma brucei, read-out: Trypanosoma brucei rhodesiense EC50
[21] = tested on: P. falciparum K1 strain; experiment: microbe, parasite or virus in culture; type: cell-based; conditions: Plasmodium falciparum, K1, read-out: Plasmodium falciparum EC50
[22] = physchem; conditions: buffer
[23] = Creek's minimal medium, same concentration of inosine or hypoxanthine
[24] = inhibition of 0.05 μM [3H]hypoxanthine uptake, 60 s, mean ± SEM, n ≥ 3

Compound | SI, in vitro selectivity index [1] | EC50 [1] [µM] | EC50 [2] [µM] | EC50 ([9]; Trypanosoma brucei) [µM] | EC50 ([10]; Trypanosoma brucei) [µM] | EC50 ([11]; Trypanosoma brucei) [µM] | EC50 [16] [µM] | other results
CC(=O)N(C)N=Nc1nc(O)c2[nH]cnc2n1 [Compound 1, 2-(3-acetyl-3-methyltriazen-1-yl)-6-hydroxypurine] | >595 | 0.42 ± 0.05 | 0.52 ± 0.08 | 0.87 | 1.5 | 3.9 | > 250 | antitrypanosomal potency against BF T. brucei in vitro (in words) [1]: submicromolar; Ki [3]: 0.59 ± 0.15 µM; mutagenic activity in Ames II test [4]: negative (not mutagenic); also recorded: did not reveal any mutagenic activity; hepatotoxic effects, hepatocyte viability (Trypan blue exclusion) [5]: does not show toxic effects; also recorded: no hepatotoxic effects; total protein content of hepatocytes (Lowry assay) [5]: No protein loss; cure rate [6]: 100%; survival of treated mice [6]: > 60 days; cure rate [7]: 75%; increase in BrdU incorporation (DNA strand breaks) [8]: 2 fold; potency against cells with impaired or lost MSH2 activity [11]: reduced potency; tolerability [12]: well tolerated; sensitivity (EC50) in medium with inosine compared to hypoxanthine as purine source [13]: higher; effect on culture proliferation [14]: Cell growth is arrested and the cells eventually die; also recorded: arrested in its proliferation; DNA content of treated cells [15]: majority of cells having an apparent 4C DNA content; hydrolysis half-life [17]: ~6.8 h; half-life at 50 µM ([17]; PBS, hydrolysis half-life): 6.8 ± 0.4 h
N=C(N)c1ccc(OCCCCCOc2ccc(C(=N)N)cc2)cc1 [Pentamidine] | – | – | – | 0.011 | 0.011 | 0.004 | – | sensitivity (EC50) in medium with inosine compared to hypoxanthine as purine source [13, 23]: not significantly different
O=C(NN=Nc1nc(O)c2[nH]cnc2n1)Oc1ccccc1 [Compound 5] | – | > 100 | > 100 | 192 | 166 | 168 | > 250 | antitrypanosomal potency against BF T. brucei in vitro (in words) [1]: did not show any toxic effects; Ki [3, 24]: 0.09 ± 0.02 µM; toxicity to HEK293T cells (in words) [18]: did not show any toxic effects
CCOC(=O)N(C)/N=N/c1nc(O)c2nc[nH]c2n1 [Compound 3] | >136 | 1.84 ± 0.08 | 2.86 ± 0.13 | – | – | – | > 250 | Ki [3]: 0.12 ± 0.03 µM
O=c1[nH]cnc2nc[nH]c12 [Hypoxanthine] | – | – | – | – | – | – | – | Ki [19]: 0.12 ± 0.03 µM
CC(=O)N(C)/N=N/c1nc(OCc2ccccc2)c2nc[nH]c2n1 [Compound 9] | – | – | – | – | – | – | – | Ki [3]: 5.8 ± 0.01 µM
CN(N=Nc1nc(O)c2[nH]cnc2n1)C(=O)Oc1ccc([N+](=O)[O-])cc1 [Compound 4] | >2 | 114 ± 34 | 157 ± 55 | – | – | – | > 250 | antitrypanosomal potency against BF T. brucei in vitro (in words) [1]: practically lost antitrypanosomal activity
N.N.[Cl][Pt][Cl] [Cisplatin] | – | – | – | – | – | – | – | EC50 [9]: 13.4 µM; EC50 [10]: 17.7 µM; EC50 [11]: 13.6 µM
Nc1nc2nc[nH]c2c(=O)[nH]1 [Guanine] | – | – | – | – | – | – | – | Ki [19]: 0.36 ± 0.18 µM
CN(N=Nc1nc(N)c2[nH]cnc2n1)C(=O)Oc1ccccc1 [Compound 6] | >24 | 10.4 ± 0.5 | 10.7 ± 0.4 | – | – | – | > 100 | Ki [3, 24]: 0.46 ± 0.08 µM
CN(/N=N/c1nc(OCc2ccccc2)c2nc[nH]c2n1)C(=O)Oc1ccccc1 [Compound 10] | – | – | – | – | – | – | – | Ki [3, 24]: 22.5 ± 9.2 µM; EC50 [20]: 8.9 µM; EC50 [21]: > 10 µM
Cn1nnc2c(C(N)=O)ncn2c1=O [TMZ, temozolomide] | – | – | – | 95 | 204 | 173 | – | potency against cells with impaired or lost MSH2 activity [11]: reduced potency
Nc1ncnc2[nH]cnc12 [Adenine] | – | – | – | – | – | – | – | Ki [19]: 3.2 ± 1.1 µM
CN(N=Nc1nc(O)c2[nH]cnc2n1)C(=O)Oc1ccccc1 [Compound 2] | >312 | 0.8 ± 0.07 | 1.21 ± 0.19 | 2.3 | 4.3 | 6.8 | > 250 | Ki [3, 24]: 0.2 ± 0.06 µM; potency against cells with impaired or lost MSH2 activity [11]: reduced potency; half-life at 50 µM [22]: 5.6 ± 0.3 h
CN(N=Nc1nc(N)c2[nH]cnc2n1)C(=O)Oc1ccc([N+](=O)[O-])cc1 [Compound 7] | >13 | 19.4 ± 4.1 | 20.7 ± 4.6 | – | – | – | > 250 | –
COS(C)(=O)=O [MMS, methyl methanesulfonate] | – | – | – | 48.9 | 57.2 | 46.7 | – | –
N=C(N)c1ccc(/N=N/Nc2ccc(C(=N)N)cc2)cc1 [DIM, diminazene, reference compound] | – | 0.26 ± 0.05 | 7.9 ± 0.7 | 0.5 | 0.64 | 0.68 | – | fold lower activity against tbat1^−/− cells than wild type ([2]; tbat1^−/− versus wild-type): 30 fold
Cc1ccc(C(=O)Nc2ccc(S(=O)(=O)O)c3cc(S(=O)(=O)O)cc(S(=O)(=O)O)c23)cc1NC(=O)c1cccc(NC(=O)Nc2cccc(C(=O)Nc3cc(C(=O)Nc4ccc(S(=O)(=O)O)c5cc(S(=O)(=O)O)cc(S(=O)(=O)O)c45)ccc3C)c2)c1 [suramin] | – | – | – | – | – | – | – | sensitivity (EC50) in medium with inosine compared to hypoxanthine as purine source [13, 23]: not significantly different
